The values below come from patent US7772246B2 (Pfizer Inc., priority 2007, dated 2010).

This assay concerns the target T1, b-Raf (Homo sapiens, UniProt P15056, V600E).
T1 construct: endogenous in cells; host or cells: A2058 human melanoma cells
The assay is described as follows: Raf cellular assay (phospho-Mek1/2 ELISA in A2058 cells). Type of assay: cell-based. The conditions noted are these: human melanoma A2058 cells (b-Raf mutation), Mek1/2 Ser217/221 phosphorylation, 1 hour incubation, read-out: pMEK IC50. The protocol:
Compounds of the present invention were evaluated for potency against b-Raf using a cellular assay as follows. The activity of Raf kinases in cells is determined by measuring the level of phosphorylation of Mek1/2 at serine 217/221, the site phosphorylated by Raf kinases in vivo. Mek1/2 Ser phosphorylation is measured using anti-phospho-Mek1/2 antibodies (Cell Signaling #9121) in an ELISA format.
Healthy growing human melanoma A2058 cells (harboring a b-Raf mutation) are used for the assay. A2058 cells are grown in 10% FBS DMEM medium. When the cells are near 85%+confluence, the cells are rinsed with PBS once and trypsinized with trypsin/EDTA for 3 minutes. The cells are resuspended in 10% FBS DMEM and are centrifuged down at 1000 rpm for 5 minutes. The cells are resuspended in 10% FBS DMEM and counted on a cell counter. The cells are seeded at 50,000 cells/well in a volume of 100 μL/well in 10% FBS DMEM in a 96 well flat-bottom plate. The negative control wells receive only 100 μL of 10% FBS DMEM medium without cells. The plate is incubated overnight in a cell culture incubator with 5% CO2 at 37° C.
On day 2, testing compounds are prepared in 10% FBS DMEM medium and serially diluted at 1:3 for 11 test concentrations. Each concentration of the compounds is tested in duplicate. The compound solutions are added at 25 μL/well to the corresponding wells in the cell plate, and 25 μL/well of the vehicle (0.5% DMSO in 10% FBS DMEM) is added to the negative control wells (no cells) and the positive control wells (cells without compounds). The plate is incubated for 1 hour in a cell culture incubator with 5% CO2 at 37° C. After 1 hour of incubation, the medium is removed, 100 μL/well of cell lysis buffer is added into the cell plate, and the plate is shaken for 15 minutes at room temperature. After 15 minutes, the cell lysates are transferred to an ELISA plate (pre-coated with anti-Mek1 anti-body, Cell Signaling #2352), and the plate is incubated with gentle shaking for 2 hours at room temperature. After 2 hours, the contents of the wells are aspirated and the wells are washed 4 times with wash buffer. 100 μL of phospho-Mek1/2 detection antibody (Cell Signaling #9121) is added into each well and the plate is incubated with gentle shaking for 1 hour at room temperature. After 1 hour, the wells are aspirated and washed 4 times with wash buffer. 100 μL of anti-rabbit IgG HRP-linked antibody (Cell Signaling #7074) is added to each well, and the plate is incubated with gentle shaking for 1 hour at room temperature. After 1 hour, the contents of the wells are aspirated and the wells are washed 4 times with wash buffer. 100 μL of TMB substrate solution (Sigma #T0440) is added into each well, and the plate is incubated with gentle shaking at room temperature for 10 to 20 minutes. After color development, 100 μL of stop solution (1N hydrochloric acid) is added to each well to terminate color development. The plate is read at 450 nm on an ELISA plate reader.
For orientation: In an ELISA, binding on a coated surface is turned into a signal by an enzyme label.

Where two headings read alike, the source gives them in different places.

T1 sequence (P15056 whole entry V600E): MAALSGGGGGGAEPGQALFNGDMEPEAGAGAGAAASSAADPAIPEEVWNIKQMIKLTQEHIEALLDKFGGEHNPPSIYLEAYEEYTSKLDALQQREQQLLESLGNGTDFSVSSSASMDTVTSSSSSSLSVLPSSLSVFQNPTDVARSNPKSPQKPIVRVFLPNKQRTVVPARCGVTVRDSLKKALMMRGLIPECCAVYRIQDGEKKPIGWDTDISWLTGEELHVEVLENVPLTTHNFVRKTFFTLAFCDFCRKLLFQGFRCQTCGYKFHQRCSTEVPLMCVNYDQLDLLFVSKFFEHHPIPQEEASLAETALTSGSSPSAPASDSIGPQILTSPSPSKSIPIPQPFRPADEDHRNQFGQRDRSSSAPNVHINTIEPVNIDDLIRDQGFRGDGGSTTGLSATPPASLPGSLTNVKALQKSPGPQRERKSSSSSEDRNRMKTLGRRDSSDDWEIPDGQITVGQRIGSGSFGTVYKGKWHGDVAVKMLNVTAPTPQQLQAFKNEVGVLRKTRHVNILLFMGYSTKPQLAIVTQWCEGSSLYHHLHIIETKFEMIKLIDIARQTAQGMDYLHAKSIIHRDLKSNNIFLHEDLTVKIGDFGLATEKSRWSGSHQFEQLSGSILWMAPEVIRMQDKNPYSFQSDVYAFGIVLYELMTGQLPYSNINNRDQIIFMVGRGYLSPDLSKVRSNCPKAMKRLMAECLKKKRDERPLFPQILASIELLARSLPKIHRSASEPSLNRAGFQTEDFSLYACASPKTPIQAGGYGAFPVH

A word on the IC50: it is the concentration needed to halve the response being measured. Regarding `Cc1c[nH]c2ncc(-c3nn(CC(F)F)cc3-c3ccnc(NCCC#N)n3)cc12` [Example B-93, 3-(4-(1-(2,2-difluoroethyl)-3-(3-methyl-1H-pyrrolo[2,3-b]pyridin-5-yl)-1H-pyrazol-4-yl)pyrimidin-2-ylamino)propanenitrile], under “Table 3”, the concentration for half-maximal inhibition (IC50) worked out at 0.275 nM.
Still for that read-out and setting: to `COc1nc(-c2nn(CC(F)F)cc2-c2ccnc(NCCC#N)n2)cnc1N` [Example B-32, 3-({4-[3-(5-amino-6-methoxypyrazin-2-yl)-1-(2,2-difluoroethyl)-1H-pyrazol-4-yl]pyrimidin-2-yl}amino)propanenitrile] belongs 1 nM.
The same measure, in the same setting: the value for `CC(C)n1cc(-c2ccnc3[nH]ccc23)c(-c2cnc3[nH]ccc3c2)n1` [Example H-3, 4-(1-isopropyl-3-(1H-pyrrolo[2,3-b]pyridin-5-yl)-1H-pyrazol-4-yl)-1H-pyrrolo[2,3-b]pyridine] was 427 nM.
On the same count and under the same terms, the value for `CC(C)n1cc(-c2ccnc3[nH]ccc23)c(-c2cnc3[nH]cc(Cl)c3c2)n1` [Example H-4, 3-chloro-5-(1-isopropyl-4-(1H-pyrrolo[2,3-b]pyridin-4-yl)-1H-pyrazol-3-yl)-1H-pyrrolo[2,3-b]pyridine] was 66.3 nM; that for `N#CCCNc1nccc(-c2cn([C@@H]3CCOC3)nc2-c2cnc3[nH]ccc3c2)n1` [Example B-75, 3-[(4-{3-(1H-pyrrolo[2,3-b]pyridin-5-yl)-1-[(3R)-tetrahydrofuran-3-yl]-1H-pyrazol-4-yl}pyrimidin-2-yl)amino]propanenitrile] was 23.8 nM; that for `COc1cc(-c2nn(C(C)C)cc2-c2ccnc(NC3CC3)n2)cnc1N` [Example B-16, 4-[3-(6-amino-5-methoxypyridin-3-yl)-1-isopropyl-1H-pyrazol-4-yl]-N-cyclopropylpyrimidin-2-amine] was 24 nM.
With `Cn1ccc2ncc(-c3nn(C(C)(C)CO)cc3-c3ccnc(NCCC#N)n3)cc21` [Example B-37, 3-({4-[1-(2-hydroxy-1,1-dimethylethyl)-3-(1-methyl-1H-pyrrolo[3,2-b]pyridin-6-yl)-1H-pyrazol-4-yl]pyrimidin-2-yl}amino)propanenitrile], the IC50 (Table 3) was determined as 44 nM.
On the same count and under the same terms, to `C[C@H](O)CNc1nccc(-c2cn(C3CCOC3)nc2-c2cnc3[nH]cc(Cl)c3c2)n1` (stereo partly drawn) [Example G-1, (2S)-1-(4-(3-(3-chloro-1H-pyrrolo[2,3-b]pyridin-5-yl)-1-(tetrahydrofuran-3-yl)-1H-pyrazol-4-yl)pyrimidin-2-ylamino)propan-2-ol] belongs 16.3 nM; to `COc1cc(-c2nn([C@H]3C[C@H](F)C3)cc2-c2ccnc(NC[C@H](C)O)n2)cnc1N` [Example B-85, (S)-1-(4-(3-(6-amino-5-methoxypyridin-3-yl)-1-((1r,3r)-3-fluorocyclobutyl)-1H-pyrazol-4-yl)pyrimidin-2-ylamino)propan-2-ol], 21.9 nM; to `Nc1nccc(-c2cn(C3CCNCC3)nc2-c2cnc3[nH]cc(Cl)c3c2)n1` [Example B-63, 4-[3-(3-chloro-1H-pyrrolo[2,3-b]pyridin-5-yl)-1-piperidin-4-yl-1H-pyrazol-4-yl]pyrimidin-2-amine], 43.7 nM.
The same measure, in the same setting: the value for `Cc1c[nH]c2ncc(-c3nn(C(C)(C)C)cc3-c3ccnc(NC[C@H](C)O)n3)cc12` [Example B-66, (2S)-1-({4-[1-tert-butyl-3-(3-methyl-1H-pyrrolo[2,3-b]pyridin-5-yl)-1H-pyrazol-4-yl]pyrimidin-2-yl}amino)propan-2-ol] was 2.87 nM.
Same read-out and setting: the value for `COc1cc(-c2nn(C3CC3)cc2-c2ccnc(NCCC#N)n2)cnc1N` [Example B-57, 3-({4-[3-(6-amino-5-methoxypyridin-3-yl)-1-cyclopropyl-1H-pyrazol-4-yl]pyrimidin-2-yl}amino)-propanenitrile] was 2.95 nM.
On to `C[C@H](O)CNc1nccc(-c2cn([C@H]3C[C@@H](F)C3)nc2-c2cnc3[nH]cc(Cl)c3c2)n1` [Example B-84, (S)-1-(4-(3-(3-chloro-1H-pyrrolo[2,3-b]pyridin-5-yl)-1-((1s,3s)-3-fluorocyclobutyl)-1H-pyrazol-4-yl)pyrimidin-2-ylamino)propan-2-ol], for which the 50% inhibitory concentration (IC50) (Table 3) amounted to 18.7 nM.
The same measure, in the same setting: the value for `COc1nc(-c2nn(CC(F)F)cc2-c2ccnc(NC[C@H](C)O)n2)cnc1N` [Example I-1, (2S)-1-({4-[3-(5-amino-6-methoxypyrazin-2-yl)-1-(2,2-difluoroethyl)-1H-pyrazol-4-yl]pyrimidin-2-yl}amino)propan-2-ol] was 2790 nM; that for `CC(C)n1cc(-c2ccnc(NCCC#N)n2)c(-c2cnc3c(c2)CCN3)n1` [Example B-20, 3-({4-[3-(2,3-dihydro-1H-pyrrolo[2,3-b]pyridin-5-yl)-1-isopropyl-1H-pyrazol-4-yl]pyrimidin-2-yl}amino)propanenitrile] was 6.64 nM.
Take `Cc1cn2cc(-c3nn(C(C)C)cc3-c3ccnc(NC[C@H](C)O)n3)cnc2n1` [Example B-8, (2S)-1-(4-(1-isopropyl-3-(2-methylimidazo[1,2-a]pyrimidin-6-yl)-1H-pyrazol-4-yl)pyrimidin-2-ylamino)propan-2-ol]: the IC50 (Table 2) turned out to be 8490 nM.
For the compound `CC1CNc2ncc(-c3nn(CC(F)F)cc3-c3ccnc(NC[C@H](C)O)n3)cc21` (stereo partly drawn) [Example B-87, (2S)-1-(4-(1-(2,2-difluoroethyl)-3-(3-methyl-2,3-dihydro-1H-pyrrolo[2,3-b]pyridin-5-yl)-1H-pyrazol-4-yl)pyrimidin-2-ylamino)propan-2-ol], where the note is “Table 3”, the IC50 was 510 nM.
On to `CC(C)(CO)n1cc(-c2ccnc(NCCC#N)n2)c(-c2cnc3[nH]ccc3c2)n1` [Example B-25, 3-({4-[1-(2-hydroxy-1,1-dimethylethyl)-3-(1H-pyrrolo[2,3-b]pyridin-5-yl)-1H-pyrazol-4-yl]pyrimidin-2-yl}amino)propanenitrile], for which the half-maximal inhibitory concentration (IC50) (Table 3) is 5.98 nM.
Same read-out and setting: the value for `CC(C)n1cc(-c2ccncn2)c(-c2cnc3[nH]cc(Cl)c3c2)n1` [Example F-1, 3-chloro-5-(1-isopropyl-4-(pyrimidin-4-yl)-1H-pyrazol-3-yl)-1H-pyrrolo[2,3-b]pyridine] was 49.9 nM; that for `CC(C)n1cc(-c2ccnc(N)c2)c(-c2cnc3[nH]ccc3c2)n1` [Example H-2, 4-(1-isopropyl-3-(1H-pyrrolo[2,3-b]pyridin-5-yl)-1H-pyrazol-4-yl)pyridin-2-amine] was 1020 nM.
`Cc1c[nH]c2ncc(-c3nn(C(F)F)cc3-c3ccnc(N)n3)cc12` [Example B-40, 4-[1-(difluoromethyl)-3-(3-methyl-1H-pyrrolo[2,3-b]pyridin-5-yl)-1H-pyrazol-4-yl]pyrimidin-2-amine]: the IC50 (Table 3) worked out at 48.2 nM.
Still for that read-out and setting: the value for `O=S(=O)(C1CC1)N1CCC(Nc2nccc(-c3cn(CC(F)F)nc3-c3cnc4[nH]ccc4c3)n2)CC1` [Example B-27, N-[1-(cyclopropylsulfonyl)piperidin-4-yl]-4-[1-(2,2-difluoroethyl)-3-(1H-pyrrolo[2,3-b]pyridin-5-yl)-1H-pyrazol-4-yl]pyrimidin-2-amine] was 184 nM; that for `CC(C)(C)n1cc(-c2ccnc(N)n2)c(-c2cnc3[nH]cc(Cl)c3c2)n1` [Example B-65, 4-[1-tert-butyl-3-(3-chloro-1H-pyrrolo[2,3-b]pyridin-5-yl)-1H-pyrazol-4-yl]pyrimidin-2-amine] was 9.04 nM.
The same measure, in the same setting: to `COc1cc(-c2nn(C(C)C)cc2-c2ccnc(NC[C@H](C)O)n2)cnc1N` [Example B-111, (2S)-1-({4-[3-(6-amino-5-methoxypyridin-3-yl)-1-isopropyl-1H-pyrazol-4-yl]pyrimidin-2-yl}amino)propan-2-ol] belongs 6.13 nM; to `COc1ccc(Nc2nccc(-c3cn(CC(F)F)nc3-c3cnc4[nH]ccc4c3)n2)cn1` [Example B-81, 4-[1-(2,2-difluoroethyl)-3-(1H-pyrrolo[2,3-b]pyridin-5-yl)-1H-pyrazol-4-yl]-N-(6-methoxypyridin-3-yl)pyrimidin-2-amine], 71.5 nM; to `COc1cc(-c2nn(C)cc2-c2ccnc(NCCC#N)n2)cnc1N` [Example G-2, 3-({4-[3-(6-amino-5-methoxypyridin-3-yl)-1-methyl-1H-pyrazol-4-yl]pyrimidin-2-yl}amino)propanenitrile], 5.24 nM.
